This is an account of results in article PMC3674108 (Journal of the American Chemical Society, 2013).

Test [1] concerns the target T1, ecTSase (Escherichia coli, UniProt P0A884). The experiment in a line: Noncompetitive KIE experiments. The format is biochemical. The following applies: w/ 50 mM MgCl2, 25 °C; for KMCH2H4folate / kcat: 100 μM dUMP, pH 7.5.
In test [2] the target is Escherichia coli TSase (ecTSase) (Escherichia coli, UniProt P0A884). Description: Steady-state initial velocities of ecTSase. The following applies: for Hill coefficient x (inhibitory binding mode): Eq 3. Type of test: biochemical.
Escherichia coli TSase (ecTSase), sequence (P0A884 whole entry): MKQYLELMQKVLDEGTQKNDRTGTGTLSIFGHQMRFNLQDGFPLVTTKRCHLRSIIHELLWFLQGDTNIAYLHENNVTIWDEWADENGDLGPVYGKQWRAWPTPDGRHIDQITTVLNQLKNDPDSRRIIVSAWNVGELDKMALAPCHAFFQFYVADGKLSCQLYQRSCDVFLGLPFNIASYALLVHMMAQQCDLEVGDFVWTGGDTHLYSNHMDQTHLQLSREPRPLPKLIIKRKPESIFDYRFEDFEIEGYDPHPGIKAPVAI
The next test has as its target ecTSase-dUMP complex. The format is binding, Escherichia coli. The following applies: read-out: KdCH4H4fol; w/o Mg^2+, 25 °C, calculated using Eq 5.
Test [3] deals with ecTSase-dUMP-Mg^2+ complex. Type of test: binding, Escherichia coli. To be noted: read-out: KdCH4H4fol; w/ 50 mM MgCl2, 25 °C, calculated using Eq 5.
Test [4] concerns the target T2, apo-ecTSase (Escherichia coli, UniProt P0A884). To be noted: read-out: Kd of Mg^2+ for apo-ecTSase; 25 °C, pH 7.5, one-site binding fit.
In test [5] the target is T1, ecTSase.
The next test concerns the target ecTSase-Mg^2+ complex (Escherichia coli, UniProt P0A884). The experiment in a line: Fluorescence assay, dUMP titration into ecTSase pre-incubated with MgCl2. The format is binding.
For test [6], the target named is T2, apo-ecTSase. The experiment in a line: biochemical.

“Also recorded” adds a separate entry of the source. Where two headings read alike, the source gives them in different places. Marks after values point to notes of the source that are not given here.

T1 sequence (P0A884 whole entry): as above
T2 sequence (P0A884 whole entry): as above
ecTSase-Mg^2+ complex, sequence (P0A884 whole entry, one chain of several): as the sequence (P0A884 whole entry) above

By kcat is commonly meant the maximal rate divided by the concentration of active sites. Regarding `[2H][C@]12CNc3nc(N)[nH]c(=O)c3N1CN(c1ccc(C(=O)N[C@@H](CCC(=O)O)C(=O)O)cc1)C2` [6R-D-CH2H4fol], on ecTSase [1], the KMCH2H4folate is 19 ± 5 µM and the kcat was 2.3 ± 0.2 s⁻¹.

On to `Nc1nc2c(c(=O)[nH]1)N1CN(c3ccc(C(=O)N[C@@H](CCC(=O)O)C(=O)O)cc3)CC1CN2` (stereo partly drawn) [CH2H4fol, N^5,N^10-methylene-5,6,7,8-tetrahydrofolate], for which the “Hill coefficient x (inhibitory binding mode)” value in test [2] (absence of Mg^2+, best-fit integer) worked out at 2; in test [2] (presence of Mg^2+ (50 mM MgCl2), best-fit integer) it was 1. In test [2] (both absence and presence of Mg^2+, best-fit integer, Eq 2), the “Hill coefficient n (productive binding mode)” value is recorded as 1. The KMCH4H4fol was found to be 15 ± 1 µM in test [2] (w/ 50 mM MgCl2, 25 °C, 100 μM dUMP) and 17 ± 2 µM in test [2] (w/o Mg^2+, 25 °C). For the same molecule, the results for the Kd (on ecTSase-dUMP complex; in test [3]) were 17 ± 2 µM and 8 ± 1 µM, respectively. For the same molecule, the KMCH2H4folate at ecTSase [1] stood at 15 ± 1 µM. Moreover, the kcat on ecTSase [1] was 8.7 ± 0.2 s⁻¹.

Consider `[Ca+2].[Cl-].[Cl-]` [CaCl2], for which the “effect on initial velocities (ionic strength control)” value in test [2] (50 mM CaCl2, 25 °C) is “no difference; also recorded: no effects on the initial velocities”.

On to `[Mg+2]` [Mg^2+], for which, in test [2] (50 mM MgCl2, 5-35 °C), the “increase of kcat (hydride transfer rate) by Mg^2+” value was “ca. 7 fold”. In addition, in test [2] (50 mM MgCl2, 25 °C), the “increase of the Michaelis constant of dUMP by Mg^2+” value is listed as “ca. 5 fold”, the “reduction of activation free energy ΔG^‡ of kcat by Mg^2+” value is “ca. 1 kcal/mol” and the “reduction of entropy of activation TΔS^‡ of kcat by Mg^2+” value is listed as “ca. 1 kcal/mol”. For the same molecule, the “-TΔS^‡ at 25 °C from fitting kcat to the Eyring equation” value in test [2] (w/ 50 mM MgCl2) is on record as 12.8 ± 0.2 kcal/mol. Besides, the “ΔH^‡ from fitting kcat to the Eyring equation” value in test [2] (w/ 50 mM MgCl2, 5-35 °C) amounted to 3.4 ± 0.2 kcal/mol. Further, the “ΔG^‡ from fitting kcat to the Eyring equation” value in test [2] (w/ 50 mM MgCl2, 25 °C) is 16.2 ± 0.4 kcal/mol. Also, the “observed H/D KIE on kcat (^Dkcat)” value at ecTSase [1] was 3.8 ± 0.3. Also, the Kd on apo-ecTSase [4] came out at 27000 ± 7000 µM. Besides, on ecTSase [5] (w/ 50 mM MgCl2), the “AH/AT (isotope effect on the Arrhenius prefactors of the hydride transfer)” value came to 6.6 ± 1.3. The “intrinsic H/D KIE (^Dk) on the hydride transfer” value at ecTSase [5] (w/ 50 mM MgCl2, 25 °C, competitive KIE experiment) was 3.9 ± 0.2^a.

`O=c1ccn([C@H]2C[C@H](O)[C@@H](COP(=O)(O)O)O2)c(=O)[nH]1` [dUMP, 2’-deoxyuridine-5’-monophosphate]: the KMdUMP amounted to 2.4 ± 0.2 µM in test [2] (w/ 50 mM MgCl2, 25 °C, 150 μM CH2H4fol) and 0.5 ± 0.1 µM in test [2] (w/o Mg^2+, 25 °C). Further, the Kd on ecTSase-Mg^2+ complex stood at 14 ± 2 µM; at apo-ecTSase [6], 8.5 ± 0.9 µM.
